One experiment has as its system PC3 (prostate). Description: In vitro cytotoxic activity (MTT) assay, PC3. Type of experiment: cell-based. As to conditions: Homo sapiens, Prostate cell; PC3 (prostate) cells, exposed for 96 hours; read-out: IC50, concentration of compound eliciting a 50% inhibition of cell proliferation. The protocol: (§1) Compounds 1-16 were screened for their in vitro cytotoxic activity utilizing a 3-(4,5-dimethyl-thiazol-2-yl)-2,5-diphenyltetrazolium bromide (MTT) assay against selected cancer human cell lines consisting of PC3 (prostate), HCT116 (colon), A375 (melanoma), H1299 (lung), MIAPaCa-2 (pancreas), HL60 (leukemia), MCF7 (breast), MDA-MB-231 (breast) (T. Mosmann, J. Immunol. Meth., 1983, 65, 55-63). The cells were cultured at 37° C. in RMPI1640 medium supplemented with 10% fetal bovine serum, 50 IU/mL penicillin, and 50 μg/mL streptomycin in a 5% CO2 incubator. All cells were sub-cultured 3 times/week by trypsinisation. Viable cells were seeded and allowed to adhere for 12 h before a test drug was added in 96-well plates at an initial density of 1.0×10^5 cells/mL. Tumour cell lines were separately exposed to various concentrations of the tested compounds followed by incubation at a temperature of 37° C. during 96 h inside a medium of fresh RMPI 1640. Cells were subsequently incubated at 37° C. using MTT at 0.5 mg/mL during 4 h. After removal of supernatant, formazan crystals were dissolved in isopropanol and the optical density was measured at 570 nm. CX-4945 was used as a positive control.

The next experiment deals with HCT116 (colon). Description: In vitro cytotoxic activity (MTT) assay, HCT116. It is filed as cell-based. As to conditions: Homo sapiens, HCT-116; HCT116 (colon) cells, exposed for 96 hours; read-out: IC50, concentration of compound eliciting a 50% inhibition of cell proliferation. As for the experimental part:
as §1

The next experiment deals with A375 (melanoma). Put plainly: In vitro cytotoxic activity (MTT) assay, A375. Type of experiment: cell-based. As to conditions: Homo sapiens, A-375; A375 (melanoma) cells, exposed for 96 hours; read-out: IC50, concentration of compound eliciting a 50% inhibition of cell proliferation. As for the experimental part: as §1
Another experiment concerns H1299 (lung). Description: In vitro cytotoxic activity (MTT) assay, H1299. Type of experiment: cell-based. As to conditions: Homo sapiens, NCI-H1299; H1299 (lung) cells, exposed for 96 hours; read-out: IC50, concentration of compound eliciting a 50% inhibition of cell proliferation. As for the experimental part:
as §1

For another experiment, the system named is MIAPaCa-2 (pancreas). Put plainly: In vitro cytotoxic activity (MTT) assay, MIAPaCa-2. Type of experiment: cell-based. As to conditions: Homo sapiens, MIA PaCa-2; MIAPaCa-2 (pancreas) cells, exposed for 96 hours; read-out: IC50, concentration of compound eliciting a 50% inhibition of cell proliferation. As for the experimental part: as §1
The next experiment has as its system HL60 (leukemia). Put plainly: In vitro cytotoxic activity (MTT) assay, HL60. It is filed as cell-based. The settings on record: Homo sapiens, HL-60; HL60 (leukemia) cells, exposed for 96 hours; read-out: IC50, concentration of compound eliciting a 50% inhibition of cell proliferation. The protocol: as §1
The next experiment concerns MCF7 (breast). Put plainly: In vitro cytotoxic activity (MTT) assay, MCF7. It is filed as cell-based. As to conditions: Homo sapiens; MCF7 (breast) cells, exposed for 96 hours; read-out: IC50, concentration of compound eliciting a 50% inhibition of cell proliferation. As for the experimental part: as §1
In a further experiment the test system is MDA-MB-231 (breast). Description: In vitro cytotoxic activity (MTT) assay, MDA-MB-231. Type of experiment: cell-based. The settings on record: Homo sapiens; MDA-MB-231 (breast) cells, exposed for 96 hours; read-out: IC50, concentration of compound eliciting a 50% inhibition of cell proliferation. The protocol:
as §1

In experiment [1] the target is T1, recombinant human CK2 (RRββ-holoenzyme) (Homo sapiens, UniProt P68400).
T1 construct: purchased Millipore
T1 sequence (P68400 whole entry): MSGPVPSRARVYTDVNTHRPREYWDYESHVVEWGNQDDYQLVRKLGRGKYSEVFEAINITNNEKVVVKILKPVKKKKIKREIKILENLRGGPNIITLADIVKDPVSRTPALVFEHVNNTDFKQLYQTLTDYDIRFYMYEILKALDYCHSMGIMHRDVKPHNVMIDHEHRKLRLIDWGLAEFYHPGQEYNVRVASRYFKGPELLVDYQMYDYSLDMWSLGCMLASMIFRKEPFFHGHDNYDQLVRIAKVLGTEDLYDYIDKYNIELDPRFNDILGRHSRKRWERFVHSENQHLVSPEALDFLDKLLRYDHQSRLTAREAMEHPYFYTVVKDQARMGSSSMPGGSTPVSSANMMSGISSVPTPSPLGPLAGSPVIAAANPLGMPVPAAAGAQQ
T1 sequence (P67870 whole entry partner): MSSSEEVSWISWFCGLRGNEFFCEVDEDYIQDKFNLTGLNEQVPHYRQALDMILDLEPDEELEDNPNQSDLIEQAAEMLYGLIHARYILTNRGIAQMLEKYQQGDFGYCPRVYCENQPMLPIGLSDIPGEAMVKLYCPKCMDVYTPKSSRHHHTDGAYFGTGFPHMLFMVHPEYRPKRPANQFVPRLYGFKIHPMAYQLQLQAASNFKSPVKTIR
Description: CK2 Kinase Assay (radiometric, [γ-33P] ATP). It is filed as biochemical. The settings on record: final ATP concentration 15 μM, 10 min at 30° C., eight concentrations; read-out: protein kinase CK2 IC50. The protocol: CK2 Kinase Assay was conducted using the protocol as described in Pierre F. et al; J. Med. Chem. 2011, 54, 635-654. The tested compounds in aqueous solution were added at a volume of 10 μL to a reaction mixture comprising 10 μL of assay dilution buffer (ADB; 20 mM MOPS, pH 7.2, 25 mM β-glycerol phosphate, 5 mM EGTA, 1 mM sodium orthovanadate, and 1 mM dithiothreitol), 10 μL of substrate peptide (RRRDDDSDDD, dissolved in ADB at a concentration of 1 mM), 10 μL of recombinant human CK2 (RRββ-holoenzyme, 25 ng dissolved in ADB; Millipore). Reactions were initiated by the addition of 10 μL of ATP solution (90% 75 mMMgCl2, 75 μM ATP (final ATP concentration: 15 μM) dissolved in ADB; 10% [γ-33P] ATP (stock 1 mCi/100 μL; 3000 Ci/mmol (Perkin-Elmer) and maintained for 10 min at 30° C. The reactions were quenched with 100 μL of 0.75% phosphoric acid and then transferred to and filtered through a phosphor cellulose filter plate (Millipore). After washing each well five times with 0.75% phosphoric acid, the plate was dried under vacuum for 5 min and, following the addition of 15 μL of scintillation fluid to each well, the residual radioactivity was measured using a Wallac luminescence counter. The IC50 values were derived from eight concentrations of test inhibitors.

As for `Clc1cccc(Nc2c3cnccc3nc3c2nc2ccncn23)c1` [Compound 1, N-(3-chlorophenyl)pyrimido[6′,1′:2,3]imidazo[4,5-b][1,6]naphthyridin-12-amine], the IC50 was 2200 nM in the experiment with PC3 (prostate); 1700 nM with HCT116 (colon); 3000 nM in the experiment with A375 (melanoma); 2500 nM in the experiment on H1299 (lung); 1400 nM in the experiment with MIAPaCa-2 (pancreas); 3.1 µM with HL60 (leukemia). Also, the values for the IC50 (in the experiment on MCF7 (breast); in the experiment on MDA-MB-231 (breast); in experiment [1]) were 5.9 µM, 4.7 µM and 138 nM, respectively.

The values are drawn from patent publication US12129254B1, “Pyrimido[6′,1′:2,3]imidazo[4,5-b][1,6]naphthyridine compounds as CK2 inhibitors” (KING FAISAL UNIVERSITY, priority 2023, dated 2024).
